{"source": "patent EP3120851A1", "about": "“4-AMINO-6-(2,6-DICHLOROPHENYL)-8-METHYL-2-(PHENYLAMINO)-PYRIDO[2,3-D]PYRIMIDIN-7(8H)-ONE FOR TREATMENT OF SOLID CANCERS” (Pangaea Biotech S.L., priority 2015, dated 2017)", "experiment_in_all_cases": "radiometric protein kinase assay (33PanQinase Activity Assay)", "assay_type_in_all_cases": "biochemical", "settings_in_all_cases": "singlicate, read-out: residual activity", "key": {"ABL2": {"target": "T1, ABL2 (Homo sapiens, UniProt P42684)", "T1 construct": "GST or His (not specified per kinase); purchased ProQinase (panel service); host or cells: Sf9 insect cells or E. coli", "experimental": "(§1) In a first experiment, the kinase inhibition profile of the compound of formula (1) was evaluated at Proqinase (http://www.proqinase.com) by measuring residual activity values at a concentration of 10 µM of the test compound in singlicate in front of the following kinases: ABL2, EPHA3, CSF1-R, DDR2 wt, DDR2 N456 S, EGF-R d746-750, EGF-R d747-752/P753S, EGF-R G719C, EGF-R G719S, EGF-R L858R, EGF-R L861Q, EGF-R wt, EPHA1, EPHA2, EPHB1, ERBB4, LCK, MINK1, RAF1 Y340D/Y341D (untagged), RIPK2, STK17A. In a second experiment, the kinase inhibition profile of the compound of formula (1) was evaluated at Proqinase (http://www.proqinase.com) by measuring residual activity values at a concentration of 0.5 and 10 µM of the test compound in singlicate in front of a panel of 300 kinases using the following protocol:\n(§2) The compounds were dissolved to 1 x 10^-03 M stock solutions in 100% DMSO. Subsequently, 100 µl of each stock solution were transferred into wells A3-F12 of a microtiter plate (\"master plate\"). Wells A1-F2 were filled with 100 µl 100% DMSO as controls. 5 x 10 µl of the master plate were aliquoted into 5 copy plates, which were stored at -20° Celsius until use. For the testing of each group of up to 8 kinases, one copy plate was used.\n(§3) In the process, 90 µl H2O were added to each well of a copy plate. To minimize precipitation, the H2O was added to each well only a few minutes before the transfer of the compound solutions into the assay plates. The plate was shaken thoroughly, resulting in a \"compound dilution plate\" with a compound concentration of 1 x 10^-04 M/10 % DMSO. This plate was used for the transfer of 5 µl compound solution into the assay plates. The final volume of the assay was 50 µl. All compounds were tested at 1 x 10^-05 M in singlicate. The final DMSO concentration in the reaction cocktails was 1 % in all cases. The compound dilution plates were disposed at the end of each working day.\n(§4) A radiometric protein kinase assay (^33PanQinase® Activity Assay) was used for measuring the kinase activity of the corresponding protein kinases. All kinase assays were performed in 96-well FlashPlatesTM from Perkin Elmer (Boston, MA, USA) in a 50 µl reaction volume. The reaction cocktail was pipetted in 4 steps in the following order: • 10 µl of non-radioactive ATP solution (in H2O) • 25 µl of assay buffer/ [γ-33P]-ATP mixture • 5 µl of test sample in 10% DMSO • 10 µl of enzyme/substrate mixture\n(§5) The protein kinase reaction cocktails were incubated at 30°C for 60 minutes. The reaction was stopped with 50 µl of 2 % (v/v) H3PO4, plates were aspirated and washed two times with 200 µl 0.9 % (w/v) NaCl. All assays were performed with a BeckmanCoulter Biomek 2000/SL robotic system. Incorporation of ^33Pi (counting of \"cpm\") was determined with a microplate scintillation counter (Microbeta, Wallac).\n(§6) All protein kinase assays were performed with a BeckmanCoulter Core robotic system.\n(§7) All protein kinases provided by ProQinase were expressed in Sf9 insect cells or in E.coli as recombinant GST-fusion proteins or His-tagged proteins. All kinases were produced from human cDNAs and purified by either GSH-affinity chromatography or immobilized metal. Affinity tags were removed from a number of kinases during purification. The purity of the protein kinases was examined by SDS-PAGE/Coomassie staining, the identity was checked by mass spectroscopy.\n(§8) Kinases from external vendors (CAR = Carna Biosciences Inc.; INV = Life Technologies (Invitrogen Corporation); MIL = Merck-Millipore (Millipore Corporation)) were expressed, purified and quality-controlled by virtue of the vendors readings.\n(§9) For each kinase, the median value of the cpm of six wells of column 1 of each assay plate was defined as \"low control\" (n=6). This value reflects unspecific binding of radioactivity to the plate in the absence of a protein kinase but in the presence of the substrate. […]"}, "DDR2 N456S": {"target": "T2, DDR2 N456S (Homo sapiens, UniProt Q16832, N456S)", "T2 construct": "GST or His (not specified per kinase); purchased ProQinase (panel service); host or cells: Sf9 insect cells or E. coli", "T2 sequence (Q16832 22-855 N456S)": "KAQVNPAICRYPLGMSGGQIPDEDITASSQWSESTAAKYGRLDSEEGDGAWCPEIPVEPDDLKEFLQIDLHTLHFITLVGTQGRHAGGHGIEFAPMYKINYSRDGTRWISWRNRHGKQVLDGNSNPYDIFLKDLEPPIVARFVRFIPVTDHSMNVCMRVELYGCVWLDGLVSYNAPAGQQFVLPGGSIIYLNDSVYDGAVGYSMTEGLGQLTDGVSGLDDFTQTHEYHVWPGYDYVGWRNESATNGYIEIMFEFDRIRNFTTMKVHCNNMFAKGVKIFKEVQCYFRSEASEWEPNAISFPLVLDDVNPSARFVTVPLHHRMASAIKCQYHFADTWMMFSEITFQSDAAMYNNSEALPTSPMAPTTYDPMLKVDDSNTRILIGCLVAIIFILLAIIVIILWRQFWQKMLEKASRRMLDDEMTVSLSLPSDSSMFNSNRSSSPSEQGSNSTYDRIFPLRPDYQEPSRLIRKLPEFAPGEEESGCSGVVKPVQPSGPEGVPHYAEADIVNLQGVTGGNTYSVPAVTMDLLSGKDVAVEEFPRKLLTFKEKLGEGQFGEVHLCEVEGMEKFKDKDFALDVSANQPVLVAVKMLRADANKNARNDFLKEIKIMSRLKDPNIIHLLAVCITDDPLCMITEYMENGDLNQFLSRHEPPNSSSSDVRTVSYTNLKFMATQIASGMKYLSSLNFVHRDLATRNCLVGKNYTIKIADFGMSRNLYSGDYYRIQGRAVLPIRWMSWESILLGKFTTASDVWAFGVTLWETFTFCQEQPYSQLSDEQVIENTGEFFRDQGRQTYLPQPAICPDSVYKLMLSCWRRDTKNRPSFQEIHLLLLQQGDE", "experimental": "as §1, §2, §3, §4, §5, §6, §7, §8, §9"}, "DDR2 wt": {"target": "T3, DDR2 wt (Homo sapiens, UniProt Q16832)", "T3 construct": "GST or His (not specified per kinase); purchased ProQinase (panel service); host or cells: Sf9 insect cells or E. coli", "T3 sequence (Q16832 22-855)": "as the sequence (Q16832 22-855 N456S) above, with S435N counted along it", "experimental": "as §1, §2, §3, §4, §5, §6, §7, §8, §9"}, "EGF-R G719C": {"target": "T4, EGF-R G719C (Homo sapiens, UniProt P00533, G719C)", "T4 construct": "GST or His (not specified per kinase); purchased ProQinase (panel service); host or cells: Sf9 insect cells or E. coli", "experimental": "as §1, §2, §3, §4, §5, §6, §7, §8, §9"}, "EGF-R L858R": {"target": "T5, EGF-R L858R (Homo sapiens, UniProt P00533, L858R)", "T5 construct": "GST or His (not specified per kinase); purchased ProQinase (panel service); host or cells: Sf9 insect cells or E. coli", "experimental": "as §1, §2, §3, §4, §5, §6, §7, §8, §9"}, "EGF-R d746-750": {"target": "T6, EGF-R d746-750 (Homo sapiens, UniProt P00533, DEL746-750)", "T6 construct": "GST or His (not specified per kinase); purchased ProQinase (panel service); host or cells: Sf9 insect cells or E. coli", "T6 sequence (P00533 with tags, fused parts or gaps DEL746-750 limits assumed)": "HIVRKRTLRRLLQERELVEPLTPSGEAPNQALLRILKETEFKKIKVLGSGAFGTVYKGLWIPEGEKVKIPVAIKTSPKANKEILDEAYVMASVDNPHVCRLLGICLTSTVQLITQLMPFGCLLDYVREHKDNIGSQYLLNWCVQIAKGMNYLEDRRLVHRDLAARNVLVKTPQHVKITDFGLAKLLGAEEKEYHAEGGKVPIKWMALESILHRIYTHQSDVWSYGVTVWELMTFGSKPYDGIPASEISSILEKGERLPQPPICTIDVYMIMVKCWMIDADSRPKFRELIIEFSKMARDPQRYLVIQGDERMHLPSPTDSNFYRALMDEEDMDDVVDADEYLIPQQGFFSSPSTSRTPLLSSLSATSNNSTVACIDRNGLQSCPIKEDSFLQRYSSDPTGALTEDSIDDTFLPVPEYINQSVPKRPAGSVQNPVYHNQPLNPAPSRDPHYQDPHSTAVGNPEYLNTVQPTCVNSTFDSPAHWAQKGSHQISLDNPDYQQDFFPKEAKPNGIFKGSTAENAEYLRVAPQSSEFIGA", "experimental": "as §1, §2, §3, §4, §5, §6, §7, §8, §9"}, "EGF-R wt": {"target": "T7, EGF-R wt (Homo sapiens, UniProt P00533)", "T7 construct": "GST or His (not specified per kinase); purchased ProQinase (panel service); host or cells: Sf9 insect cells or E. coli", "T7 sequence (P00533 25-1210)": "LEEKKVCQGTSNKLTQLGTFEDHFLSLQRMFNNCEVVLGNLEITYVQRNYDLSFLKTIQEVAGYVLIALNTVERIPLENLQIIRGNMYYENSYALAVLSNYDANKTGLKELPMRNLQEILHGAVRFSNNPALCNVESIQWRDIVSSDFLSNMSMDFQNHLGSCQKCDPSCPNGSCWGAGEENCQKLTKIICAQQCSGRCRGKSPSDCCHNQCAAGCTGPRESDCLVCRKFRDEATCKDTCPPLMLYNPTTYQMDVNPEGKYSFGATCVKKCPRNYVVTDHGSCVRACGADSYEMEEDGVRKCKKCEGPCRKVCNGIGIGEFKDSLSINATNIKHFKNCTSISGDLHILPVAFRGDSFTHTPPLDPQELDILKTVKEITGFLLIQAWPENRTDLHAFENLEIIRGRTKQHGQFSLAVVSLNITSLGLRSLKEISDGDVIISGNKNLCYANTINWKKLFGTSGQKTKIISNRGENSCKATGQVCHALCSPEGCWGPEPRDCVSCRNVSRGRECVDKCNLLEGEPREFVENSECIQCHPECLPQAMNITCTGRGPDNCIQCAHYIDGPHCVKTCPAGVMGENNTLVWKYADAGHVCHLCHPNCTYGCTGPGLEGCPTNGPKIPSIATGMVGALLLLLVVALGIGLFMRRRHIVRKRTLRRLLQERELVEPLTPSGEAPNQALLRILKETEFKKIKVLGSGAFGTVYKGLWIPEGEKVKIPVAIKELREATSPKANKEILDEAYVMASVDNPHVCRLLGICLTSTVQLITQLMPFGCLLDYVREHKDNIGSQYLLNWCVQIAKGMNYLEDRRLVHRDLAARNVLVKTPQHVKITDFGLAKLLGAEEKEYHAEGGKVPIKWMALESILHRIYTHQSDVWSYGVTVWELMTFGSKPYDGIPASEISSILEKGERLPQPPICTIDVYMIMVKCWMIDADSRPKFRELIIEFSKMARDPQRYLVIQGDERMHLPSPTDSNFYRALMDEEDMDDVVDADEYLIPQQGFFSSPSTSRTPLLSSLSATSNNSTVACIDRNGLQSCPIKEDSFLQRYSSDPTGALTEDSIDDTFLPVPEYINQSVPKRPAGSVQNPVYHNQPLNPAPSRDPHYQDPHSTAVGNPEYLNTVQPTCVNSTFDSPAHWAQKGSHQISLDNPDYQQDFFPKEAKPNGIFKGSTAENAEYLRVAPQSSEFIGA", "experimental": "as §1, §2, §3, §4, §5, §6, §7, §8, §9"}, "EPHA1": {"target": "T8, EPHA1 (Homo sapiens, UniProt P21709)", "T8 construct": "GST or His (not specified per kinase); purchased ProQinase (panel service); host or cells: Sf9 insect cells or E. coli", "experimental": "as §1, §2, §3, §4, §5, §6, §7, §8, §9"}, "EPHA2": {"target": "T9, EPHA2 (Homo sapiens, UniProt P29317)", "T9 construct": "GST or His (not specified per kinase); purchased ProQinase (panel service); host or cells: Sf9 insect cells or E. coli", "experimental": "as §1, §2, §3, §4, §5, §6, §7, §8, §9"}, "EPHA3": {"target": "T10, EPHA3 (Homo sapiens, UniProt P29320)", "T10 construct": "GST or His (not specified per kinase); purchased ProQinase (panel service); host or cells: Sf9 insect cells or E. coli", "T10 sequence (P29320 21-983)": "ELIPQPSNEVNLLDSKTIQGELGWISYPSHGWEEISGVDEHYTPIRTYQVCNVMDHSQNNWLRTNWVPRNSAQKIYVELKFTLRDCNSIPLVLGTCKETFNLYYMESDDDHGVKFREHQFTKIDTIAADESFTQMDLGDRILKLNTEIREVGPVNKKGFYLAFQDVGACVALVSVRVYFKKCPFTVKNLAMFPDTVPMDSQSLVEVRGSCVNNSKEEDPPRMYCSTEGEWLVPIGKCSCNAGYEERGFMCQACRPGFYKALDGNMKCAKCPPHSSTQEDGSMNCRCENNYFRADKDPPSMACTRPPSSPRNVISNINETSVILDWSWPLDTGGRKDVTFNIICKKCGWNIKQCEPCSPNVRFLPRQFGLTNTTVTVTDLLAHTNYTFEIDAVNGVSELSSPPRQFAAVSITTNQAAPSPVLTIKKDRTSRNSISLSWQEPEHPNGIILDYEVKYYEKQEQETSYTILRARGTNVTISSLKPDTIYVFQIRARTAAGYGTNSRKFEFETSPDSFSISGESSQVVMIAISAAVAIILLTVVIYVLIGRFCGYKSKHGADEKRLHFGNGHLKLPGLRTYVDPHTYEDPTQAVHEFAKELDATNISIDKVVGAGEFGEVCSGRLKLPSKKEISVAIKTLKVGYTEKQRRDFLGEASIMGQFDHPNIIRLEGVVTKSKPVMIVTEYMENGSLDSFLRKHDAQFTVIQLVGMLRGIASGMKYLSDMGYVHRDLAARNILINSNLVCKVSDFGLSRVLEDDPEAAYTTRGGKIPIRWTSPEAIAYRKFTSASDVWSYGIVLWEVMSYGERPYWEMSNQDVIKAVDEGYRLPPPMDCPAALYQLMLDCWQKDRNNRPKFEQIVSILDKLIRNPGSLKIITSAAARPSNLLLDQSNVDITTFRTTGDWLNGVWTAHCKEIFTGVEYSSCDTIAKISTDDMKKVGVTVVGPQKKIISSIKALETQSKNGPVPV", "experimental": "as §1, §2, §3, §4, §5, §6, §7, §8, §9"}, "EPHB1": {"target": "T11, EPHB1 (Homo sapiens, UniProt P54762)", "T11 construct": "GST or His (not specified per kinase); purchased ProQinase (panel service); host or cells: Sf9 insect cells or E. coli", "experimental": "as §1, §2, §3, §4, §5, §6, §7, §8, §9"}, "ERBB4": {"target": "T12, ERBB4 (Homo sapiens, UniProt Q15303)", "T12 construct": "GST or His (not specified per kinase); purchased ProQinase (panel service); host or cells: Sf9 insect cells or E. coli", "T12 sequence (Q15303 26-1308)": "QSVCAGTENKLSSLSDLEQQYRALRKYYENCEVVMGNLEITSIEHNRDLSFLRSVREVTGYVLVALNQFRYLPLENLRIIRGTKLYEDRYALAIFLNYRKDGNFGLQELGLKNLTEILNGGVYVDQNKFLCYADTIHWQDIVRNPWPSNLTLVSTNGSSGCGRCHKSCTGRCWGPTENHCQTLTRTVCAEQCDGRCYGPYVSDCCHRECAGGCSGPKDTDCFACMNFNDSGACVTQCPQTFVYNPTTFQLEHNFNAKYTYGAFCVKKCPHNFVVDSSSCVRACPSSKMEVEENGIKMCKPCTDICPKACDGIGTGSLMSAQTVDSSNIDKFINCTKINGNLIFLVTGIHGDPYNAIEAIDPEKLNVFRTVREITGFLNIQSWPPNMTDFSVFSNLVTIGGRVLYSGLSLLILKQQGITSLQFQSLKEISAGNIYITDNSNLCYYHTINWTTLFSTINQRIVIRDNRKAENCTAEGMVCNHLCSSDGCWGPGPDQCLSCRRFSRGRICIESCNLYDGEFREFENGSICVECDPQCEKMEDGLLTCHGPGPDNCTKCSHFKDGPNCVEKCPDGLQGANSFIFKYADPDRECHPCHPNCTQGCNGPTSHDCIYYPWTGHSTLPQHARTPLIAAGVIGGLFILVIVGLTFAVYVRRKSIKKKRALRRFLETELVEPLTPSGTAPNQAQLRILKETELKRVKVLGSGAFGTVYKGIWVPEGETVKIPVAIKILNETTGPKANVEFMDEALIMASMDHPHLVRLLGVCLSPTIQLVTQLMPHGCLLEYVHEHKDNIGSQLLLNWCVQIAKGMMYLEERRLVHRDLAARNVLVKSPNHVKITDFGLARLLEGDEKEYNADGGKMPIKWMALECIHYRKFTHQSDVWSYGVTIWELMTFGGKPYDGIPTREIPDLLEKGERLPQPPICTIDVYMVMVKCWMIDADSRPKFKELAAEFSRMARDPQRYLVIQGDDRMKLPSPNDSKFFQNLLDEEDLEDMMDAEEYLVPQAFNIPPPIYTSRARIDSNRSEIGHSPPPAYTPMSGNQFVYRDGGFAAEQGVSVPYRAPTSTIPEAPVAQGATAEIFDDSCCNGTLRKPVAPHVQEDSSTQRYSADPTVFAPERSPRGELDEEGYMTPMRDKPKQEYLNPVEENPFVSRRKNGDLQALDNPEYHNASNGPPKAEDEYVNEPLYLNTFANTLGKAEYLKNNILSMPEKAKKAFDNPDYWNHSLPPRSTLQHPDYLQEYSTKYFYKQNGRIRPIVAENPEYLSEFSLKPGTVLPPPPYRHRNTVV", "experimental": "as §1, §2, §3, §4, §5, §6, §7, §8, §9"}, "LCK": {"target": "T13, LCK (Homo sapiens, UniProt P06239)", "T13 construct": "GST or His (not specified per kinase); purchased ProQinase (panel service); host or cells: Sf9 insect cells or E. coli", "experimental": "as §1, §2, §3, §4, §5, §6, §7, §8, §9"}, "[1]": {"target": "T14, RAF1 Y340D/Y341D (untagged) (Homo sapiens, UniProt P04049, Y340D/Y341D)", "T14 construct": "purchased ProQinase (panel service); host or cells: Sf9 insect cells or E. coli", "experimental": "as §1, §2, §3, §4, §5, §6, §7, §8, §9"}}}
{"smiles": "Cn1c(=O)c(-c2c(Cl)cccc2Cl)cc2c(N)nc(Nc3ccccc3)nc21", "note": "[Compound (1), 4-amino-6-(2,6-dichlorophenyl)-8-methyl-2-(phenylamino)-pyrido[2,3-d]pyrimidin-7(8H)-one]", "values": [{"measurement": "remaining activity at 0.5 µM", "setting": "ABL2; 0.5 µM test compound", "value": 44, "unit": "%"}, {"measurement": "remaining activity at 10 µM", "setting": "ABL2; 10 µM test compound", "value": 13, "unit": "%"}, {"measurement": "remaining activity at 0.5 µM", "setting": "DDR2 N456S; 0.5 µM test compound", "value": 10, "unit": "%"}, {"measurement": "remaining activity at 10 µM", "setting": "DDR2 N456S; 10 µM test compound", "value": 6, "unit": "%"}, {"measurement": "remaining activity at 0.5 µM", "setting": "DDR2 wt; 0.5 µM test compound", "value": 10, "unit": "%"}, {"measurement": "remaining activity at 10 µM", "setting": "DDR2 wt; 10 µM test compound", "value": 4, "unit": "%"}, {"measurement": "remaining activity at 0.5 µM", "setting": "EGF-R G719C; 0.5 µM test compound", "value": 29, "unit": "%"}, {"measurement": "remaining activity at 10 µM", "setting": "EGF-R G719C; 10 µM test compound", "value": 6, "unit": "%"}, {"measurement": "remaining activity at 0.5 µM", "setting": "EGF-R L858R; 0.5 µM test compound", "value": 49, "unit": "%"}, {"measurement": "remaining activity at 10 µM", "setting": "EGF-R L858R; 10 µM test compound", "value": 10, "unit": "%"}, {"measurement": "remaining activity at 0.5 µM", "setting": "EGF-R d746-750; 0.5 µM test compound", "value": 28, "unit": "%"}, {"measurement": "remaining activity at 10 µM", "setting": "EGF-R d746-750; 10 µM test compound", "value": 10, "unit": "%"}, {"measurement": "remaining activity at 0.5 µM", "setting": "EGF-R wt; 0.5 µM test compound", "value": 47, "unit": "%"}, {"measurement": "remaining activity at 10 µM", "setting": "EGF-R wt; 10 µM test compound", "value": 16, "unit": "%"}, {"measurement": "remaining activity at 0.5 µM", "setting": "EPHA1; 0.5 µM test compound", "value": 54, "unit": "%"}, {"measurement": "remaining activity at 10 µM", "setting": "EPHA1; 10 µM test compound", "value": 13, "unit": "%"}, {"measurement": "remaining activity at 0.5 µM", "setting": "EPHA2; 0.5 µM test compound", "value": 54, "unit": "%"}, {"measurement": "remaining activity at 10 µM", "setting": "EPHA2; 10 µM test compound", "value": 9, "unit": "%"}, {"measurement": "remaining activity at 0.5 µM", "setting": "EPHA3; 0.5 µM test compound", "value": 9, "unit": "%"}, {"measurement": "remaining activity at 10 µM", "setting": "EPHA3; 10 µM test compound", "value": 36, "unit": "%"}, {"measurement": "remaining activity at 0.5 µM", "setting": "EPHB1; 0.5 µM test compound", "value": 57, "unit": "%"}, {"measurement": "remaining activity at 10 µM", "setting": "EPHB1; 10 µM test compound", "value": 5, "unit": "%"}, {"measurement": "remaining activity at 0.5 µM", "setting": "ERBB4; 0.5 µM test compound", "value": 52, "unit": "%"}, {"measurement": "remaining activity at 10 µM", "setting": "ERBB4; 10 µM test compound", "value": 7, "unit": "%"}, {"measurement": "remaining activity at 0.5 µM", "setting": "LCK; 0.5 µM test compound", "value": 50, "unit": "%"}, {"measurement": "remaining activity at 10 µM", "setting": "LCK; 10 µM test compound", "value": 5, "unit": "%"}, {"measurement": "remaining activity at 0.5 µM", "setting": "[1]; 0.5 µM test compound", "value": 57, "unit": "%"}, {"measurement": "remaining activity at 10 µM", "setting": "[1]; 10 µM test compound", "value": 25, "unit": "%"}]}
